Source: US8569509B2, “Thiazole-4-carboxylic acid esters and thioesters as plant protection agents” (priority 2008, dated 2013)

Test system: Phytophthora infestans
Experiment: not given
Type: in vivo
Conditions: tomato plants, protective, application rate 10 ppm, evaluation 3 days after inoculation
With `Cc1cc(C(F)(F)F)nn1CC(=O)N1CCC(c2nc(C(=O)OCc3ccccc3Cl)cs2)CC1` [Ex. 23] the Efficacy in % was 94%. `Cc1cc(C(F)(F)F)nn1CC(=O)N1CCC(c2nc(C(=O)NCc3ccccc3Cl)cs2)CC1` [reference compound] showed an Efficacy in % of 65%.

Test system: not listed separately
Experiment: log P determination (HPLC, calibration with unbranched alkan-2-ones)
Type: physicochemical
Conditions: * LC-MS determination in the acidic range at pH 2.7, mobile phases 0.1% aqueous formic acid and acetonitrile (0.1% formic acid), linear gradient 10% to 95% acetonitrile; reversed-phase C 18 HPLC
Experimental: The calibration is carried out using unbranched alkan-2-ones (having 3 to 16 carbon atoms) with known log P values (determination of the log P values by the retention times using linear interpolation between two successive alkanones). The lambda-maX values were determined in the maxima of the chromatographic signals using the UV spectra from 200 nm to 400 nm.
With `Cc1cc(C(F)(F)F)nn1CC(=O)N1CCC(c2nc(C(=O)O[C@@H]3CCCc4ccccc43)cs2)CC1` [compound 795] the log p was 4.06*. In the case of `Cc1cc(C(F)F)n(CC(=O)N2CCC(c3nc(C(=O)OC4CCCCC4)cs3)CC2)n1` [compound 796], the log p is reported as 3.28*. For `Cc1cc(C)n(C(C)(C)C(=O)N2CCC(c3nc(C(=O)OC4CC(C)CCC4C(C)C)cs3)CC2)n1` (stereo not drawn) [compound 797], the log p was 5.51*. For `C#CC1(OC(=O)c2csc(C3CCN(C(=O)C(C)(C)n4nc(C)cc4C)CC3)n2)CCCC1` [compound 798], the log p was 3.28*. With `Cc1cc(C)n(C(C)(C)C(=O)N2CCC(c3nc(C(=O)OC4CC5CCC4(C)C5(C)C)cs3)CC2)n1` (stereo not drawn) [compound 800] the log p was 5.08*. In the case of `C=CC(CCC)OC(=O)c1csc(C2CCN(C(=O)C(C)(C)n3nc(C)cc3C)CC2)n1` (stereo not drawn) [compound 801], the log p is reported as 3.78*. For `Cc1cc(C)n(C(C)(C)C(=O)N2CCC(c3nc(C(=O)OC4CC(C)CC(C(C)C)C4)cs3)CC2)n1` (stereo not drawn) [compound 802], the log p was 5.58*. For `Cc1cc(C)n(C(C)(C)C(=O)N2CCC(c3nc(C(=O)OCCN(C)C)cs3)CC2)n1` [compound 803], the log p was 1.03*. For `C#CC1(OC(=O)c2csc(C3CCN(C(=O)C(C)(C)n4nc(C)cc4C)CC3)n2)CCCCC1` [compound 804], the log p was 3.73*. For `CCCCC(CC)COC(=O)c1csc(C2CCN(C(=O)C(C)(C)n3nc(C)cc3C)CC2)n1` (stereo not drawn) [compound 806], the log p was 5.08*. For `Cc1cc(C(F)(F)F)nn1CC(=O)N1CCC(c2nc(C(=O)Oc3cccc4ncccc34)cs2)CC1` [compound 807], the log p was 2.59*. With `Cc1cc(C(F)(F)F)nn1CC(=O)N1CCC(c2nc(C(=O)OC(c3ccccc3)c3ccccc3)cs2)CC1` [compound 808] the log p was 4.17*. With `Cc1cc(C(F)(F)F)nn1CC(=O)N1CCC(c2nc(C(=O)Oc3cccc4ocnc34)cs2)CC1` [compound 809] the log p was 2.81*. For `COc1ccccc1OC(=O)c1csc(C2CCN(C(=O)Cn3nc(C(F)(F)F)cc3C)CC2)n1` [compound 814], the log p was 3.17*. For `Cc1cc(C(F)(F)F)nn1CC(=O)N1CCC(c2nc(C(=O)OC(c3ccccc3)C3CC3)cs2)CC1` (stereo not drawn) [compound 815], the log p was 3.87*. With `COc1cccc(OC)c1OC(=O)c1csc(C2CCN(C(=O)Cn3nc(C(F)(F)F)cc3C)CC2)n1` [compound 816] the log p was 3.12*. In the case of `COc1ccccc1COC(=O)c1csc(C2CCN(C(=O)Cn3nc(C(F)(F)F)cc3C)CC2)n1` [compound 817], the log p is reported as 3.44*. In the case of `Cc1cc(C(F)(F)F)nn1CC(=O)N1CCC(c2nc(C(=O)OCc3c(Cl)cc(Cl)cc3Cl)cs2)CC1` [compound 818], the log p is reported as 4.53*. In the case of `Cc1cc(C(F)(F)F)nn1CC(=O)N1CCC(c2nc(C(=O)OCc3ccc(OC(F)(F)F)cc3)cs2)CC1` [compound 819], the log p is reported as 3.99*. In the case of `Cc1cc(C(F)(F)F)nn1CC(=O)N1CCC(c2nc(C(=O)Oc3ccccc3-c3ccccc3)cs2)CC1` [compound 821], the log p is reported as 3.96*. With `Cc1cc(C(F)(F)F)nn1CC(=O)N1CCC(c2nc(C(=O)Oc3cccc(Oc4ccccc4)c3)cs2)CC1` [compound 824] the log p was 4.18*. With `Cc1cc(C(F)(F)F)nn1CC(=O)N1CCC(c2nc(C(=O)Oc3ccc(Oc4ccccc4)cc3)cs2)CC1` [compound 825] the log p was 4.14*. With `C#CC1(OC(=O)c2csc(C3CCN(C(=O)Cn4nc(C(F)(F)F)cc4C)CC3)n2)CCCCC1` [compound 826] the log p was 3.76*. In the case of `Cc1cc(C(F)(F)F)nn1CC(=O)N1CCC(c2nc(C(=O)OC3(C#N)CCCCC3)cs2)CC1` [compound 827], the log p is reported as 3.33*. With `Cc1cc(C(F)(F)F)nn1CC(=O)N1CCC(c2nc(C(=O)OC3CCC(C(C)(C)C)CC3)cs2)CC1` (stereo not drawn) [compound 828] the log p was 5.19*. For `Cc1cc(C(F)(F)F)nn1CC(=O)N1CCC(c2nc(C(=O)OC3CC(C)CCC3C(C)C)cs2)CC1` (stereo not drawn) [compound 829], the log p was 5.22*. With `Cc1cc(C(F)(F)F)nn1CC(=O)N1CCC(c2nc(C(=O)OC3CCC4(CC3)OCCO4)cs2)CC1` [compound 830] the log p was 2.90*. In the case of `Cc1cc(C(F)(F)F)nn1CC(=O)N1CCC(c2nc(C(=O)OC3C(C)CCCC3C)cs2)CC1` (stereo not drawn) [compound 831], the log p is reported as 4.40*. In the case of `Cc1cc(C(F)(F)F)nn1CC(=O)N1CCC(c2nc(C(=O)OC3CCCCC3C)cs2)CC1` (stereo not drawn) [compound 832], the log p is reported as 4.12*. With `CCCCCCCCOC(=O)c1csc(C2CCN(C(=O)Cn3nc(C(F)(F)F)cc3C)CC2)n1` [compound 833] the log p was 5.02*. With `COc1ccc(COC(=O)c2csc(C3CCN(C(=O)Cn4nc(C(F)(F)F)cc4C)CC3)n2)c(OC)c1` [compound 834] the log p was 3.33*. In the case of `Cc1cc(C(F)(F)F)nn1CC(=O)N1CCC(c2nc(C(=O)OCc3c(F)cc(F)cc3F)cs2)CC1` [compound 835], the log p is reported as 3.53*. In the case of `Cc1cc(C(F)(F)F)nn1CC(=O)N1CCC(c2nc(C(=O)OCc3ccccc3C(F)(F)F)cs2)CC1` [compound 836], the log p is reported as 3.84*. In the case of `Cc1cc(C(F)(F)F)nn1CC(=O)N1CCC(c2nc(C(=O)OCc3ccccc3OC(F)(F)F)cs2)CC1` [compound 837], the log p is reported as 3.95*. For `CC(C)(C)c1cc(C(F)(F)F)n(CC(=O)N2CCC(c3nc(C(=O)OCC4CCCCC4)cs3)CC2)n1` [compound 847], the log p was 4.75*. For `CC(C)(C)c1cc(C(F)(F)F)nn1CC(=O)N1CCC(c2nc(C(=O)OCC3CCCCC3)cs2)CC1` [compound 848], the log p was 4.51*. With `CC(C)(C)c1cc(C(F)(F)C(F)(F)F)n(CC(=O)N2CCC(c3nc(C(=O)OCC4CCCCC4)cs3)CC2)n1` [compound 849] the log p was 5.08*. For `CC(C)(C)c1cc(C(F)(F)C(F)(F)F)nn1CC(=O)N1CCC(c2nc(C(=O)OCC3CCCCC3)cs2)CC1` [compound 850], the log p was 4.94*. With `CC(C)c1cc(C(F)(F)F)n(CC(=O)N2CCC(c3nc(C(=O)OCC4CCCCC4)cs3)CC2)n1` [compound 851] the log p was 4.35*. With `CCc1cc(C(F)(F)F)n(CC(=O)N2CCC(c3nc(C(=O)OCC4CCCCC4)cs3)CC2)n1` [compound 852] the log p was 3.99*. In the case of `Cc1cc(C(F)(F)F)nn1CC(=O)N1CCC(c2nc(C(=O)O[C@H]3CCCc4ccccc43)cs2)CC1` [compound 853], the log p is reported as 4.06*.

Same assay, conditions: pH 2.7; read-out: log P (pH 2.7)
With `O=C(OC1CCCCC1)c1csc(C2CCN(C(=O)Cn3nc(C(F)F)cc3C(F)F)CC2)n1` [compound 811, Cyclohexyl 2-(1-{[3,5-bis(difluoromethyl)-1H-pyrazol-1-yl]acetyl}piperidin-4-yl)-1,3-thiazole-4-carboxylate] the chromatographic logP was 3.64. Compound `O=C(Oc1cccc2ccccc12)c1csc(C2CCN(C(=O)Cn3nc(C(F)F)cc3C(F)F)CC2)n1` [compound 813, 1-Naphthyl 2-(1-{[3,5-bis(difluoromethyl)-1H-pyrazol-1-yl]acetyl}piperidin-4-yl)-1,3-thiazole-4-carboxylate] has a chromatographic logP of 3.64. `Cc1cc(C(F)(F)F)nn1CC(=O)N1CCC(c2nc(C(=O)OCc3ccccc3Br)cs2)CC1` [compound 820, 2-Bromobenzyl 2-(1-{[5-methyl-3-(trifluoromethyl)-1H-pyrazol-1-yl]acetyl}piperidin-4-yl)-1,3-thiazole-4-carboxylate] showed a chromatographic logP of 3.8. With `O=C(OC1CCCCC1)c1csc(C2CCN(C(=S)Cn3nc(C(F)F)cc3C(F)F)CC2)n1` [compound 854, Cyclohexyl 2-(1-{2-[3,5-bis(difluoromethyl)-1H-pyrazol-1-yl]ethanethioyl}piperidin-4-yl)-1,3-thiazole-4-carboxylate] the chromatographic logP was 4.23.

Same assay, conditions: reversed-phase (C18) HPLC column; * LC-MS determination in the acidic range, pH 2.7, 0.1% aqueous formic acid and acetonitrile, linear gradient 10% to 95% acetonitrile; read-out: log p
Work on `Cc1cc(C(F)(F)F)nn1CC(=O)N1CCC(c2nc(C(=O)OCc3ccccc3Cl)cs2)CC1` [Ex. 23] yielded a chromatographic logP of 3.7.

Same assay, conditions: reversed-phase (C18) HPLC column; ** determination in the acidic range, pH 2.3, 0.1% aqueous phosphoric acid and acetonitrile, linear gradient 10% to 95% acetonitrile; read-out: log p
Work on `Cc1cc(C(F)(F)F)nn1CC(=O)N1CCC(c2nc(C(=O)OC3CCCc4ccccc43)cs2)CC1` (stereo not drawn) [Ex. 6] yielded a chromatographic logP of 4.01.

Same assay, conditions: reversed-phase C18 HPLC column; * LC-MS determination in the acidic range at pH 2.7, mobile phases 0.1% aqueous formic acid and acetonitrile (0.1% formic acid), linear gradient 10% to 95% acetonitrile; reversed-phase C 18 HPLC; read-out: log p
Compound `O=C(OC1CCCCC1)c1csc(C2CCN(C(=O)Cn3nc(C(F)F)cc3C(F)F)CC2)n1` [compound 811, Cyclohexyl 2-(1-{[3,5-bis(difluoromethyl)-1H-pyrazol-1-yl]acetyl}piperidin-4-yl)-1,3-thiazole-4-carboxylate] has a chromatographic logP of 3.64. Work on `O=C(Oc1cccc2ccccc12)c1csc(C2CCN(C(=O)Cn3nc(C(F)F)cc3C(F)F)CC2)n1` [compound 813, 1-Naphthyl 2-(1-{[3,5-bis(difluoromethyl)-1H-pyrazol-1-yl]acetyl}piperidin-4-yl)-1,3-thiazole-4-carboxylate] yielded a chromatographic logP of 3.64. With `Cc1cc(C(F)(F)F)nn1CC(=O)N1CCC(c2nc(C(=O)OCc3ccccc3Br)cs2)CC1` [compound 820, 2-Bromobenzyl 2-(1-{[5-methyl-3-(trifluoromethyl)-1H-pyrazol-1-yl]acetyl}piperidin-4-yl)-1,3-thiazole-4-carboxylate] the chromatographic logP was 3.8. Compound `O=C(OC1CCCCC1)c1csc(C2CCN(C(=S)Cn3nc(C(F)F)cc3C(F)F)CC2)n1` [compound 854, Cyclohexyl 2-(1-{2-[3,5-bis(difluoromethyl)-1H-pyrazol-1-yl]ethanethioyl}piperidin-4-yl)-1,3-thiazole-4-carboxylate] has a chromatographic logP of 4.23.

Test system: Plasmopara viticola
Experiment: Plasmopara test (grapevine)/protective
Type: in vivo
Conditions: grapevine plants, protective, application rate 1 ppm, evaluation 6 days after inoculation
Experimental: Plasmopara Test (Grapevine)/Protective
After the spray coating has dried on, the plants are inoculated with an aqueous spore suspension of Plasmopara viticola and then remain in an incubation cabin at about 20° C. and 100% relative atmospheric humidity for 1 day. The plants are then placed in a greenhouse at about 21° C. and about 90% atmospheric humidity for 4 days. The plants are then moistened and placed in an incubation cabin for 1 day.
Evaluation is carried out 6 days after the inoculation.
Compound `Cc1cc(C(F)(F)F)nn1CC(=O)N1CCC(c2nc(C(=O)OC3CCCc4ccccc43)cs2)CC1` (stereo not drawn) [Ex. 6] has an Efficacy in % of 91%. `Cc1cc(C(F)(F)F)nn1CC(=O)N1CCC(c2nc(C(=O)N(C)C3CCCc4ccccc43)cs2)CC1` (stereo not drawn) [drawing 26, reference compound] showed an Efficacy in % of 72%.

Test system: Plasmopara viticola
Experiment: Plasmopara test (grapevine)/curative
Type: in vivo
Conditions: grapevine plants, curative, application rate 100 ppm, evaluation 6 days after inoculation
Work on `Cc1cc(C(F)(F)F)nn1CC(=O)N1CCC(c2nc(C(=O)OC3CCCc4ccccc43)cs2)CC1` (stereo not drawn) [Ex. 6] yielded an Efficacy in % of 84%. In the case of `Cc1cc(C(F)(F)F)nn1CC(=O)N1CCC(c2nc(C(=O)N(C)C3CCCc4ccccc43)cs2)CC1` (stereo not drawn) [drawing 28, reference compound], the Efficacy in % is reported as 37%.
